Laboratory results: ChEMBL document CHEMBL2062494, “Synthesis and biochemical evaluation of thiochromanone thiosemicarbazone analogues as inhibitors of cathepsin L” (ACS Med Chem Lett, 2012)

Key:
[1] = target: Cathepsin B (Homo sapiens, UniProt P07858); assay: Inhibition of human liver cathepsin B using Z-R-R-AMC as substrate preincubated with compound for 5 mins measured after 20 mins by fluorescence analysis
[2] = target: Procathepsin L (Homo sapiens, UniProt P07711); assay: Inhibition of human liver cathepsin L using Z-R-R-AMC as substrate preincubated with compound for 5 mins measured after 20 mins by fluorescence analysis
Procathepsin L, sequence (P07711 whole entry): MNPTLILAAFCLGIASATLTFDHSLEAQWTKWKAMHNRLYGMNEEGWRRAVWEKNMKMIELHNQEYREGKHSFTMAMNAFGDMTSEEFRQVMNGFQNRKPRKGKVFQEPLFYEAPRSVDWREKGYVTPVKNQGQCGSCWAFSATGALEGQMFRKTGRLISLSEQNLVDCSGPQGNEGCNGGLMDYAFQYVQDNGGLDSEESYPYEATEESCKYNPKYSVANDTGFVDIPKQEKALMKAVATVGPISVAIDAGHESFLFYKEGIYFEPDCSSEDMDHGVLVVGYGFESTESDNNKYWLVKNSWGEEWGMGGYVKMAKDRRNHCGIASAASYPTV

| SMILES | IC50 [1] [µM] | IC50 [2] [µM] |
| --- | --- | --- |
| NC(=S)N/N=C1\CCSc2ccc(Cl)cc21 | > 10 | 0.228 |
| NC(=S)N/N=C1\CCSc2ccc(F)cc21 | > 10 | 0.741 |
| NC(=S)N/N=C1\CCSc2cc(F)c(F)cc21 | > 10 | 0.046 |
| Cc1ccc2c(c1)/C(=N/NC(N)=S)CCS2 | > 10 | 0.214 |
| CSc1ccc2c(c1)/C(=N/NC(N)=S)CCS2 | > 10 | > 10 |
| NC(=S)N/N=C1\CCSc2ccc(OC(F)(F)F)cc21 | > 10 | 0.256 |
| NC(=S)N/N=C1\CCSc2ccc([N+](=O)[O-])cc21 | > 10 | 0.068 |
| CC(=O)Nc1ccc2c(c1)/C(=N/NC(N)=S)CCS2 | > 10 | > 10 |
| NC(=S)N/N=C1\CCS(=O)(=O)c2ccc(Cl)cc21 | > 10 | > 10 |
| NC(=S)N/N=C1\CCS(=O)(=O)c2cc(F)c(F)cc21 | > 10 | 3.65 |
| NC(=S)N/N=C1\CCS(=O)(=O)c2c(F)cc(F)cc21 | > 10 | > 10 |
| NC(=S)N/N=C1\CCS(=O)(=O)c2ccc(C(F)(F)F)cc21 | > 10 | 0.26 |
| NC(=S)N/N=C1\CCS(=O)(=O)c2ccc([N+](=O)[O-])cc21 | > 10 | 0.112 |
| CC(=O)Nc1ccc2c(c1)/C(=N/NC(N)=S)CCS2(=O)=O | > 10 | > 10 |
| NC(=S)NN=C1CCSc2ccc(N)cc21 (mixture of isomers) | > 10 | > 10 |

More lines, now with the values ahead:

| IC50 [1] [µM] | IC50 [2] [µM] | SMILES |
| --- | --- | --- |
| > 10 | > 10 | NC(=S)N/N=C1\CCSc2c(OC(F)(F)F)cccc21 |
| > 10 | 0.152 | NC(=S)N/N=C1\CCSc2ccc(Br)cc21 |
| > 10 | 1.5 | NC(=S)N/N=C1\CCSc2c(F)cc(F)cc21 |
| > 10 | > 10 | NC(=S)N/N=C1\CCSc2c(Br)cc(F)cc21 |
| > 10 | 0.434 | NC(=S)N/N=C1\CCSc2c(F)cc(Br)cc21 |
| > 10 | 2.72 | CCc1ccc2c(c1)/C(=N/NC(N)=S)CCS2 |
| > 10 | > 10 | CC(C)c1ccc2c(c1)/C(=N/NC(N)=S)CCS2 |
| > 10 | > 10 | COc1ccc2c(c1)/C(=N/NC(N)=S)CCS2 |
| > 10 | 0.284 | NC(=S)N/N=C1\CCSc2ccc(C(F)(F)F)cc21 |
| > 10 | > 10 | NC(=S)N/N=C1\CCSc2ccc(O)cc21 |
| > 10 | > 10 | NC(=S)N/N=C1\CCSc2ccc3ccccc3c21 |
| > 10 | > 10 | NC(=S)N/N=C1\CCS(=O)(=O)c2ccc(F)cc21 |
| > 10 | > 10 | NC(=S)N/N=C1\CCS(=O)(=O)c2c(Br)cc(F)cc21 |
| > 10 | 1.12 | NC(=S)N/N=C1\CCS(=O)(=O)c2c(F)cc(Br)cc21 |
| > 10 | > 10 | Cc1ccc2c(c1)/C(=N/NC(N)=S)CCS2(=O)=O |
| > 10 | 6.52 | CCc1ccc2c(c1)/C(=N/NC(N)=S)CCS2(=O)=O |
| > 10 | > 10 | CC(C)c1ccc2c(c1)/C(=N/NC(N)=S)CCS2(=O)=O |
| > 10 | > 10 | COc1ccc2c(c1)/C(=N/NC(N)=S)CCS2(=O)=O |
| > 10 | 3.96 | NC(=S)N/N=C1\CCS(=O)(=O)c2ccc(OC(F)(F)F)cc21 |
| > 10 | 0.574 | NC(=S)N/N=C1\CCS(=O)(=O)c2ccc(Br)cc21 |
| > 10 | > 10 | NC(=S)NN=C1CCS(=O)(=O)c2ccc(O)cc21 (mixture of isomers) |
